Measurements: PubChem BioAssay AID298 (DTP/NCI, 2004)
Results filed as inconclusive are left out.

Tested on: MX-1 breast xenograft, intrarenal, nude mice, tumor weight
Assay: NCI In Vivo Anticancer Drug Screen. Data for tumor model Human Mammary Carcinoma MX-1 Xenograft (intrarenal inoculation) in NU/NU BALB/C (nude) mice
Conditions: endpoint: mean tumor weight change, higher = larger tumour
Method in brief: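 T/C readout: treated-group measurement over vehicle-control measurement, using tumor size or survival in tumor-bearing mice.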

[1] = dose: 150.0 mg/kg/injection, schedule: Q04DX003 (sc), vehicle: saline with Tween-80
[2] = dose: 300.0 mg/kg/injection, schedule: Q04DX003 (sc), vehicle: saline with Tween-80
[3] = dose: 100.0 mg/kg/injection, schedule: Q04DX003 (ip), vehicle: saline with Tween-80
[4] = dose: 200.0 mg/kg/injection, schedule: Q04DX003 (ip), vehicle: saline with Tween-80
[5] = dose: 400.0 mg/kg/injection, schedule: Q04DX003 (ip), vehicle: saline with Tween-80

For `C=C1C(O)C2(O)OCC34C(CC5C(C)=CC(=O)C(O)C5(C)C23)OC(=O)C(OC(=O)C/C=C(\C)CCCCC)C14` (centres undefined), which T/C (dose: 1.5 mg/kg/injection, schedule: Q04DX003 (ip), vehicle: saline + alcohol) is on record?
The T/C was 69 % of control.

And the T/C (dose: 3.0 mg/kg/injection, schedule: Q04DX003 (ip), vehicle: saline + alcohol)?
Its T/C is 87 % of control.

And the T/C (dose: 6.0 mg/kg/injection, schedule: Q04DX003 (ip), vehicle: saline + alcohol)?
Its T/C is 47 % of control.

What about the T/C (dose: 12.0 mg/kg/injection, schedule: Q04DX003 (ip), vehicle: saline + alcohol) of the same compound?
Its T/C is 43 % of control.

Which results are given for `Nc1c(/C=C/c2cc3cc(C4=NCCN4)ccc3o2)[nH]c2cc(C3=NCCN3)ccc12`?
T/C (dose: 37.5 mg/kg/injection, schedule: Q04DX003 (ip), vehicle: Klucel (hydroxypropylcellulose) (HPC)): 80 % of control; T/C (dose: 75.0 mg/kg/injection, schedule: Q04DX003 (ip), vehicle: Klucel (hydroxypropylcellulose) (HPC)): 103 % of control; T/C (dose: 150.0 mg/kg/injection, schedule: Q04DX003 (ip), vehicle: Klucel (hydroxypropylcellulose) (HPC)): 40 % of control

How did the T/C [1] turn out when `CC(=O)Nc1cscc1NC(C)=O` was run?
The T/C was 198 % of control.

What about the T/C [2] of the same compound?
Its T/C is 59 % of control.

What about the T/C (dose: 1200.0 mg/kg/injection, schedule: Q04DX003 (sc), vehicle: saline with Tween-80) of the same compound?
The T/C was 106 % of control.

What does the source list for `CC1=C(/C=C/C(C)=C/C=C/C(C)=C/C(=O)Nc2ccc(O)cc2)C(C)(C)CCC1`?
T/C [3]: 67 % of control; T/C [4]: 81 % of control; T/C [5]: 58 % of control; T/C (dose: 800.0 mg/kg/injection, schedule: Q04DX003 (ip), vehicle: saline with Tween-80): 69 % of control

Which T/C (dose: 150.0 mg/kg/injection, schedule: Q04DX003 (ip), vehicle: saline) does the source give for `N[C@@H](C[C@H]1CCC(=O)[C@@H]2O[C@H]12)C(=O)O` here?
The T/C was 94 % of control.

What about the T/C (dose: 150.0 mg/kg/injection, schedule: Q04DX003 (ip), vehicle: suspension in saline) of the same compound?
Its T/C is 100 % of control.

And the T/C (dose: 300.0 mg/kg/injection, schedule: Q04DX003 (ip), vehicle: saline)?
The T/C was 90 % of control.

What about the T/C (dose: 300.0 mg/kg/injection, schedule: Q04DX003 (ip), vehicle: suspension in saline) of the same compound?
Its T/C is 75 % of control.

What about the T/C (dose: 600.0 mg/kg/injection, schedule: Q04DX003 (ip), vehicle: saline) of the same compound?
Its T/C is 104 % of control.

And the T/C (dose: 600.0 mg/kg/injection, schedule: Q04DX003 (ip), vehicle: suspension in saline)?
The T/C was 82 % of control.

And the T/C (dose: 1200.0 mg/kg/injection, schedule: Q04DX003 (ip), vehicle: saline)?
Its T/C is 47 % of control.

What about the T/C (dose: 1200.0 mg/kg/injection, schedule: Q04DX003 (ip), vehicle: suspension in saline) of the same compound?
Its T/C is 62 % of control.

For `[NH-]C(CCC(N)=O)C(=O)O.[NH-]C(CCC(N)=O)C(=O)O.[Zn+2]` (centres undefined), which T/C (dose: 75.0 mg/kg/injection, schedule: Q04DX003 (ip), vehicle: saline with Tween-80) is on record?
Its T/C is 97 % of control.

`CC1=CCCC2C1(C)CCC(C)C2(C)Cc1cc(O)ccc1O` (centres undefined) was tested. Which T/C (dose: 12.5 mg/kg/injection, schedule: Q04DX003 (ip), vehicle: Klucel (hydroxypropylcellulose) (HPC)) did it give?
Its T/C is 84 % of control.

And the T/C (dose: 25.0 mg/kg/injection, schedule: Q04DX003 (ip), vehicle: Klucel (hydroxypropylcellulose) (HPC))?
The T/C was 76 % of control.

What about the T/C (dose: 50.0 mg/kg/injection, schedule: Q04DX003 (ip), vehicle: Klucel (hydroxypropylcellulose) (HPC)) of the same compound?
Its T/C is 86 % of control.

And the T/C (dose: 100.0 mg/kg/injection, schedule: Q04DX003 (ip), vehicle: Klucel (hydroxypropylcellulose) (HPC))?
The T/C was 66 % of control.

With `O=c1c(O)c(-c2cc(O)c(O)c(O)c2)oc2cc(O)cc(O)c12` as the compound, how does the T/C (dose: 50.0 mg/kg/injection, schedule: Q04DX003 (sc), vehicle: saline with Tween-80) read?
The T/C was 95 % of control.

And the T/C (dose: 100.0 mg/kg/injection, schedule: Q04DX003 (sc), vehicle: saline with Tween-80)?
Its T/C is 111 % of control.

What about the T/C (dose: 200.0 mg/kg/injection, schedule: Q04DX003 (sc), vehicle: saline with Tween-80) of the same compound?
The T/C was 115 % of control.

And the T/C (dose: 400.0 mg/kg/injection, schedule: Q04DX003 (sc), vehicle: saline with Tween-80)?
Its T/C is 179 % of control.

Which results are given for `OC1OCC(COc2ccc(Cl)cc2)OC1O` (centres undefined)?
T/C [3]: 78 % of control; T/C [4]: 75 % of control; T/C [5]: 92 % of control

How did the T/C (dose: 600.0 mg/kg/injection, schedule: Q04DX003 (sc), vehicle: saline with Tween-80) turn out when `COC(=O)Nc1nc2ccc(C3(c4ccc(F)cc4)OCCO3)cc2[nH]1` was run?
Its T/C is 190 % of control.

Which T/C (dose: 80.0 mg/kg/injection, schedule: Q04DX003 (sc), vehicle: water) does the source give for `CCC12C[N+]3([O-])CCc4c([nH]c5ccccc45)C(C(=O)OC)(c4cc5c(cc4OC)N(C)C4C(O)(C(=O)OC)C(OC(C)=O)C6(CC)C=CCN7CCC54C76)CC(C3)C1O2` (centres undefined) here?
Its T/C is 109 % of control.

What about the T/C (dose: 160.0 mg/kg/injection, schedule: Q04DX003 (sc), vehicle: water) of the same compound?
The T/C was 117 % of control.

And the T/C (dose: 320.0 mg/kg/injection, schedule: Q04DX003 (sc), vehicle: water)?
Its T/C is 123 % of control.

What about the T/C (dose: 640.0 mg/kg/injection, schedule: Q04DX003 (sc), vehicle: water) of the same compound?
The T/C was 88 % of control.

Which T/C (dose: 150.0 mg/kg/injection, schedule: Q04DX003 (sc), vehicle: saline) does the source give for `NNC(=O)c1ccncc1` here?
Its T/C is 123 % of control.

`CC(=O)N(C)O` was tested. Which T/C (dose: 37.5 mg/kg/injection, schedule: Q04DX003 (sc), vehicle: saline with Tween-80) did it give?
The T/C was 98 % of control.

And the T/C (dose: 75.0 mg/kg/injection, schedule: Q04DX003 (sc), vehicle: saline with Tween-80)?
The T/C was 80 % of control.

And the T/C [1]?
Its T/C is 69 % of control.

What about the T/C [2] of the same compound?
Its T/C is 87 % of control.
